{"source": "paper PMC9077138", "about": "“An investigation on 3-acetyl-7-methoxy-coumarin Schiff bases and their Ru(II) metallates with potent antiproliferative activity and enhanced LDH and NO release” (RSC Advances, 2018)", "key": {"[1]": {"test_system": "human normal keratinocyte cells (HaCaT)", "assay": "MTT cytotoxicity assay", "assay_type": "cell-based", "settings": "MTT, 48 h, normal cells; read-out: IC50 values HaCaT", "experimental": "In order to investigate the selectivity of the compounds for cancer cells rather than normal cell lines, the compounds were also screened for their anticancer activity on the human normal keratinocyte cells (HaCaT).\n(§1) Cytotoxic activity of the compounds was tested with human lung cancer cell lines A549, human breast cancer cell lines MCF-7 and human normal keratinocyte cells (HaCaT) by using MTT assay, which was done according to the earlier literature methods[77] and IC50 values obtained from nonlinear regression using GraphPad Prism 5.[78] The LDH release[79] and NO release[80] assays of the compounds was evaluated by the earlier reported methods."}, "[2]": {"test_system": "human lung carcinoma cancer cell line A549", "assay": "MTT cytotoxicity assay", "assay_type": "cell-based", "settings": "MTT, 48 h; read-out: IC50 values A549", "source_text": "(§2) The DNA/protein binding studies, antioxidant and antimicrobial studies had shown that the ligands and ruthenium(II) complexes studied here have therapeutic potentials and were subjected to study their anticancer activity. A number of coumarin derivatives have shown considerable anticancer activity against a number of cell lines. All the 3-acetyl-7-methoxy-coumarin-4(N)-substituted thiosemicarbazone ligands, metal precursor [RuHClCO(PPh3)3] and their new cyclometallated Ru(II) complexes were assessed for their cytotoxicity with two human derived cell lines namely human lung carcinoma (A549) and human breast cancer cells (MCF-7) by using MTT assay. For comparison purpose, cisplatin was used as a positive control under identical conditions.\nas §1"}, "[3]": {"test_system": "human breast cancer cell line MCF-7", "assay": "MTT cytotoxicity assay", "assay_type": "cell-based", "settings": "MTT, 48 h; read-out: IC50 values MCF-7", "source_text": "as §2, §1"}, "C. albicans": {"test_system": "C. albicans", "assay": "In vitro antifungal assay (zone of inhibition, MIC)", "assay_type": "cell-based, Candida albicans", "settings": "C. albicans", "experimental": "(§3) The free ligands and their cyclometallated ruthenium(II) carbonyl complexes were screened for their in vitro antimicrobial activity against certain pathogenic bacterial and fungal species at three different concentrations using disc diffusion method.\n(§4) Antimicrobial activities of [RuHClCO(PPh3)3], ligands H2L^1–4 and new organometallic Ru(II) complexes (1–4) were evaluated by agar well diffusion method[76] as reported, by taking Staphylococcus aureus, Streptococcus pneumonie, Pseudomonas aeruginosa, Salmonella paratyphi and fungus such as Candida albicans, Trichophyton rubrum, Aspergillus niger, Aspergillus fumigatus and Candida tropicalis. The above said all test organisms were obtained from the MTCC, Chandigarh, India and Microbiological laboratory, Coimbatore, Tamil Nadu, India. The antimicrobial activity of the test compounds was checked with various concentrations (25 μg ml^−1, 50 μg ml^−1 and 100 μg ml^−1) against all the test pathogens. Gentamicin and ketoconazole were used as positive controls to study the antibacterial and antifungal activities respectively. Each experiment was performed in triplicate and the results are represented as average zone of inhibition and minimum inhibitory concentration of all the test pathogens."}, "Aspergillus niger": {"test_system": "Aspergillus niger", "assay": "In vitro antifungal assay (zone of inhibition, MIC)", "assay_type": "cell-based", "experimental": "as §3, §4"}, "BSA": {"molecular_target": "T1, BSA (Bos taurus, UniProt P02769)", "T1 construct": "purchased HiMedia (Mumbai, India)", "T1 sequence (P02769 25-607)": "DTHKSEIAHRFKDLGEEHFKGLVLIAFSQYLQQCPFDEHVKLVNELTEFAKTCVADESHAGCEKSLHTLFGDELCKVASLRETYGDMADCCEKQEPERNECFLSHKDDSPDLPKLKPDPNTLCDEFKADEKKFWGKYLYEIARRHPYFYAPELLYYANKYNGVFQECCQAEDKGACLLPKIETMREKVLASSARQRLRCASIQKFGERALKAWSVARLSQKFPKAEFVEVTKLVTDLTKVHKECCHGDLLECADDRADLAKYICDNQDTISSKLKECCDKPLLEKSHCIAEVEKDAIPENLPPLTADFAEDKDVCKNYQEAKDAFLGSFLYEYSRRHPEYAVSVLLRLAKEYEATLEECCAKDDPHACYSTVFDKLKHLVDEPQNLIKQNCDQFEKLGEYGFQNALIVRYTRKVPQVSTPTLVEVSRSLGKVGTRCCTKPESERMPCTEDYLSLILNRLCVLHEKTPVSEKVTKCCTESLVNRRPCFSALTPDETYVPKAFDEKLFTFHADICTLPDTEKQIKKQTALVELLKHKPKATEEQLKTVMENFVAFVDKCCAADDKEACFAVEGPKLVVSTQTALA", "assay": "BSA tryptophan fluorescence quenching", "assay_type": "binding, bovine", "settings": "for Quenching constant kq / Stern–Volmer KSV / number of binding sites n / Binding constant Kbin: BSA; for Binding constant Kbin: Scatchard equation; for quenching of BSA fluorescence intensity at 346 nm: compounds 10–100 μM, BSA 10 μM", "source_text": "The obtained results confirmed the interaction of the ligands and complexes with serum albumins. The absorption spectra of the serum albumins in the absence and presence of ligands H2L^1–4 and the complexes 1–4 are given in Fig. S29 in the ESI. ^† On adding ligands and complexes 1–4 to albumins, the absorbance intensity of serum albumins was decreased with a red shift of 2 nm. The observed changes indicated a static quenching mechanism of serum albumins by the ligands and complexes (1–4). To obtain a quantitative insight into the quenching progression, the Stern–Volmer quenching constant (KSV) and the quenching constant (Kq) were calculated from the Stern–Volmer equation using the Io/ICorrversus [Q] plot (Table 4).[53] The observed linearity in the plots (Fig. 13) indicated the ability of the compounds to quench the emission intensity of serum albumins and the order of quenching constant of the compounds is complex 3 > complex 2 > complex 1 > complex 4 > H2L^3 > H2L^2 > H2L^1 > H2L^4.\nFurthermore, the equilibrium binding constant and number of binding sites were evaluated by using the Scatchard equation. The Kbin values were derived from the graph between log[(Fo − F)/F] and log[Q] From the results, we confirmed that the Ru(II) complexes having a large hydrophobic area can interact more efficiently than the ligands with serum albumins via a static pathway. The higher binding affinity of the complexes over the ligands may be due to the efficient binding of protein moiety with the complexed metal ions. Here, the binding affinities of the complexes with serum albumins followed the same order as those with DNA binding studies, complex 3 > complex 2 > complex 1 > complex 4 > H2L^3 > H2L^2 > H2L^1 > H2L^4. Variation in the binding affinity of the compounds with serum albumins depends on the electron-donating ability of the ligand, i.e. the substitution on the N-terminal nitrogen atom. The binding capability of the compounds to serum albumins increased with the increase in electron-donating ability of the substituent on the terminal nitrogen of the coordinated thiosemicarbazone ligand. The obtained quenching constant and binding constant values of these new cyclometallated ruthenium(II) complexes agree well with those reported for other ruthenium(II) complexes.[31,44,54–56] […]\nSerum albumin binding study\nBovine Serum Albumin (BSA) and human serum albumin were purchased from Hi Media, The protein binding study was performed by tryptophan fluorescence quenching experiments using bovine serum albumin (BSA, 10 µM) or human serum albumin (HSA, 10 µM) as the substrate in phosphate buffer (pH= 7.2). Quenching of the emission intensity of tryptophan residues of BSA at 346 nm (excitation wavelength at 280 nm)/ HSA at 345 nm (excitation wavelength at 290 nm) was monitored using ligands and complexes as quenchers with increasing concentration (10-100µM). Synchronous fluorescence spectra of BSA or HSA with various concentrations of the complexes were obtained from 300 to 400 nm when ∆λ = 60 nm and from 290 to 500 nm when ∆λ = 15 nm. For synchronous fluorescence spectra, the same concentrations of serum albumins and the compounds were also used and the spectra were measured at two different Δλ values (difference between the excitation and emission wavelengths of BSA), such as 15 and 60 nm. Fluorescence and synchronous measurements were performed using a 1 cm quartz cell on a JASCO FP 6600 spectrofluorimeter.\nThe quenching data can be analyzed according to the Stern-Volmer equation, […]\nIo/Icorr =K SV[Q]+1 Eq (S2) where Iₒ is the emission intensity in the absence of compound, Icorr is the corrected emission intensity in the presence of compound, KSV is the quenching constant and [Q] is the concentration of the compound.\nIn order to correct the inner filter effect, the following equation used Icorr = Iobs*10 (Aexc+Aem)/2 where Icorr is the corrected fluorescence value, Iobs the measured fluorescence value, Aexc is […]"}, "P. aeruginosa": {"test_system": "P. aeruginosa", "assay": "In vitro antibacterial assay (zone of inhibition, MIC)", "assay_type": "cell-based, Pseudomonas aeruginosa", "settings": "P. aeruginosa", "experimental": "as §3, §4"}, "S. pneumonie": {"test_system": "S. pneumonie", "assay": "In vitro antibacterial assay (zone of inhibition, MIC)", "assay_type": "cell-based, Streptococcus pneumonie", "settings": "S. pneumonie", "experimental": "as §3, §4"}}, "data": [{"compound": "COc1ccc2[c]3c(c(=O)oc2c1)C(C)=[N+]1N=C(Nc2ccccc2)[S][Ru-4]31([C]#[O+])([P+](c1ccccc1)(c1ccccc1)c1ccccc1)[P+](c1ccccc1)(c1ccccc1)c1ccccc1", "note": "[Complex 4, [Ru(7MAC-ptsc)(CO)(PPh3)2]]", "values": [{"measurement": "IC50", "setting": "[1]", "value": "> 40", "unit": "µM"}, {"measurement": "IC50", "setting": "[2]", "value": "3.05 ± 0.12", "unit": "µM"}, {"measurement": "IC50", "setting": "[3]", "value": "3.02 ± 0.05", "unit": "µM"}, {"measurement": "Minimum inhibitory concentration (MIC); head: IC50 VALUES", "setting": "C. albicans", "value": "14.65 ± 0.13", "unit": "µM"}, {"measurement": "Zone of inhibition", "setting": "C. albicans; 50 µg/ml", "value": "12.49±0.14", "unit": "mm"}, {"measurement": "Zone of inhibition", "setting": "C. albicans; 100 µg/ml", "value": "17.19±0.66", "unit": "mm"}, {"measurement": "Minimum inhibitory concentration (MIC); head: IC50 VALUES", "setting": "Aspergillus niger", "value": "14.80 ± 0.25", "unit": "µM"}, {"measurement": "Zone of inhibition", "setting": "Aspergillus niger; 50 µg/ml", "value": "11.55±0.26", "unit": "mm"}, {"measurement": "Zone of inhibition", "setting": "Aspergillus niger; 100 µg/ml", "value": "17.66±0.13", "unit": "mm"}, {"measurement": "Quenching constant kq", "setting": "BSA", "value": "1.454 ± 0.030 × 10^12 M^−1 s^−1"}, {"measurement": "Stern–Volmer KSV", "setting": "BSA", "value": "1.454 ± 0.030 × 10^4 M^−1"}, {"measurement": "number of binding sites n", "setting": "BSA", "value": "1.0486 ± 0.019"}, {"measurement": "Binding constant Kbin", "setting": "BSA", "value": "2.178 ± 0.019 × 10^4 M^−1"}, {"measurement": "quenching of BSA fluorescence intensity at 346 nm", "setting": "BSA", "value": 58.68, "unit": "%"}, {"measurement": "Minimum inhibitory concentration (MIC); head: IC50 VALUES", "setting": "P. aeruginosa", "value": "15.66 ± 0.16", "unit": "µM"}, {"measurement": "Zone of inhibition", "setting": "P. aeruginosa; 50 µg/ml", "value": "12.33±0.53", "unit": "mm"}, {"measurement": "Zone of inhibition", "setting": "P. aeruginosa; 100 µg/ml", "value": "16.85±0.62", "unit": "mm"}, {"measurement": "Minimum inhibitory concentration (MIC); head: IC50 VALUES", "setting": "S. pneumonie", "value": "15.89 ± 0.12", "unit": "µM"}, {"measurement": "Zone of inhibition", "setting": "S. pneumonie; 50 µg/ml", "value": "12.31±0.48", "unit": "mm"}, {"measurement": "Zone of inhibition", "setting": "S. pneumonie; 100 µg/ml", "value": "16.54±0.12", "unit": "mm"}]}, {"compound": "CCNC1=N[N+]2=C(C)c3[c](c4ccc(OC)cc4oc3=O)[Ru-4]2([C]#[O+])([P+](c2ccccc2)(c2ccccc2)c2ccccc2)([P+](c2ccccc2)(c2ccccc2)c2ccccc2)[S]1", "note": "[Complex 3, [Ru(7MAC-etsc)(CO)(PPh3)2]]", "values": [{"measurement": "IC50", "setting": "[1]", "value": "> 40", "unit": "µM"}, {"measurement": "IC50", "setting": "[2]", "value": "2.37 ± 0.04", "unit": "µM"}, {"measurement": "IC50", "setting": "[3]", "value": "2.53 ± 0.1", "unit": "µM"}, {"measurement": "Minimum inhibitory concentration (MIC); head: IC50 VALUES", "setting": "C. albicans", "value": "13.24 ± 0.16", "unit": "µM"}, {"measurement": "Zone of inhibition", "setting": "C. albicans; 50 µg/ml", "value": "12.29±0.15", "unit": "mm"}, {"measurement": "Zone of inhibition", "setting": "C. albicans; 100 µg/ml", "value": "17.73±0.21", "unit": "mm"}, {"measurement": "Minimum inhibitory concentration (MIC); head: IC50 VALUES", "setting": "Aspergillus niger", "value": "14.44 ± 0.21", "unit": "µM"}, {"measurement": "Zone of inhibition", "setting": "Aspergillus niger; 50 µg/ml", "value": "12.73±0.55", "unit": "mm"}, {"measurement": "Zone of inhibition", "setting": "Aspergillus niger; 100 µg/ml", "value": "18.43±0.12", "unit": "mm"}, {"measurement": "Quenching constant kq", "setting": "BSA", "value": "1.756 ± 0.080 × 10^12 M^−1 s^−1"}, {"measurement": "Stern–Volmer KSV", "setting": "BSA", "value": "1.756 ± 0.080 × 10^4 M^−1"}, {"measurement": "number of binding sites n", "setting": "BSA", "value": "1.266 ± 0.0290"}, {"measurement": "Binding constant Kbin", "setting": "BSA", "value": "17.49 ± 0.030 × 10^4 M^−1"}, {"measurement": "quenching of BSA fluorescence intensity at 346 nm", "setting": "BSA", "value": 63.19, "unit": "%"}, {"measurement": "Minimum inhibitory concentration (MIC); head: IC50 VALUES", "setting": "P. aeruginosa", "value": "14.46 ± 0.18", "unit": "µM"}, {"measurement": "Zone of inhibition", "setting": "P. aeruginosa; 50 µg/ml", "value": "13.23±0.52", "unit": "mm"}, {"measurement": "Zone of inhibition", "setting": "P. aeruginosa; 100 µg/ml", "value": "17.34±0.45", "unit": "mm"}, {"measurement": "Minimum inhibitory concentration (MIC); head: IC50 VALUES", "setting": "S. pneumonie", "value": "14.85 ± 0.09", "unit": "µM"}, {"measurement": "Zone of inhibition", "setting": "S. pneumonie; 50 µg/ml", "value": "11.11±0.22", "unit": "mm"}, {"measurement": "Zone of inhibition", "setting": "S. pneumonie; 100 µg/ml", "value": "17.46±0.41", "unit": "mm"}]}]}
